In patent publication US20260258088A1, “DISC1-BINDING PEPTIDES AND THE USE THEREOF FOR THE TREATMENT AND DIAGNOSIS OF SCHIZOPHRENIA AND OTHER CHRONIC MENTAL DISORDERS” (FORSCHUNGSZENTRUM JUELICH GMBH, priority 2022, published 2026):
Changes are numbered by the printed parent chain. Ends that are not written are not given here.

Legend:
Settings in all cases: peptide immobilized, protein 2 μM, 25° C., TBS pH 7.4, KD = Koff/Kon
[1] = molecular target: T1, DISC1 C-region (residues 691-836) mutant S713E (Homo sapiens, UniProt Q9NRI5, S713E); assay: Bio-layer interferometry (BLI) binding of immobilized peptides to S713E C-region
T1 construct: DISC1 C-region (residues 691-836) mutant versions S704C, and/or 713E and/or L807-FS
T1 sequence (Q9NRI5 691-836 S713E): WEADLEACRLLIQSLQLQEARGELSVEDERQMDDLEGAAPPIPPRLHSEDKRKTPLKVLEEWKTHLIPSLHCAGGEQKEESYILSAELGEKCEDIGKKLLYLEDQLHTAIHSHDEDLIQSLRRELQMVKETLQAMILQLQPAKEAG
Description: (§1) Bio-layer interferometry (BLI) for identification of peptide leads. Binding of the peptides with the C-region constructs (WT, S713E, S704C and L807-FS) were investigated using an Octet (ForteBio) instrument. Prior to measurements, all peptides were solubilized in phosphate buffered saline (PBS) containing 20 mM Na-phosphate, pH 7.4, and 150 mM NaCl. For coupling of the peptide (ligand), the A2RG sensor chip (Sartorius GmbH) were activated with 1-ethyl-3-(3-dimethylaminopropyl) carbodiimide (EDC)/N hydroxysuccinimide (NHS) (200 mM/50 mM); the peptides were diluted to 2 μM in 10 mM sodium acetate, pH 4.0, and immobilized to the sensor chip, and the flow cell was deactivated with 0.1 M ethanolamine-HCl, pH 8.5. Titrations of the above-mentioned C-region and the constructs were performed at 25° C. with TBS, pH 7.4 as the running buffer using protein concentrations of 2 μM without intermittent regeneration. Data analysis of peptide-protein interaction. In order to assess the binding isotherms of the protein to the immobilized peptides, I derived the binding affinity (KD) by computing the on-rate (Kon) and the off-rate (Koff) by deriving the reciprocals of the exponential fittings of association and dissociation (OriginPro 2020). The binding affinity (KD) was derived by dividing the off-rate (Koff) with the on-rate (Kon).

[2] = molecular target: T2, wild-type (WT) human DISC1 C-region (residues 691-836) (Homo sapiens, UniProt Q9NRI5); assay: Bio-layer interferometry (BLI) binding of immobilized peptides to WT C-region
T2 construct: human DISC1 C-region (residues 691-836); His6 (N); made in house; host or cells: E. coli BL21 (DE3) pLysE T1R
T2 sequence (Q9NRI5 691-836): T1 sequence (Q9NRI5 691-836 S713E) with E23S
Description: Protein expression and purification. The wild-type (WT) human DISC1 C-region (residues 691-836) was expressed alternatively as N-terminal His6—fusion construct, which was expressed as previously described using the E. coli BL21 (DE3) pLysE T1R cells. The culture was grown either in Luria-Bertani (LB) broth and protein expression was induced at an OD600 of 0.6 by the addition of 1 mM isopropyl-β-D-thiogalactopyranoside (IPTG) for 16 h at 18° C. Harvested cells were lysed using an ice-chilled microfluidizer M100P (Microfluidics MPT) at 15, 000 PSI in Tris-buffered saline (TBS) buffer containing 10 mM Tris-HCl pH 7.4, 150 mM NaCl and Complete EDTA-free protease inhibitor cocktail (Roche). The soluble fraction was purified on Co^2+-NTA resin (Qiagen) and was eluted using TBS containing 500 mM imidazole. In the next step, the WT C-region protein was further purified on a HiLoad 16/60 Superdex 200 size exclusion chromatography column (GE Healthcare Bio Sciences).
as §1, with “regeneration.” for “regeneration. Data analysis of peptide-protein interaction. In order to assess the binding isotherms of the protein to the immobilized peptides, I derived the binding affinity (KD) by computing the on-rate (Kon) and the off-rate (Koff) by deriving the reciprocals of the exponential fittings of association and dissociation (OriginPro 2020). The binding affinity (KD) was derived by dividing the off-rate (Koff) with the on-rate (Kon).”
Data analysis of peptide-protein interaction. In order to assess the binding isotherms of the protein to the immobilized peptides, I derived the binding affinity (KD) by computing the on-rate (Kon) and the off-rate (Koff) by deriving the reciprocals of the exponential fittings of association and dissociation (OriginPro 2020).
The binding affinity (KD) was derived by dividing the off-rate (Koff) with the on-rate (Kon).

[3] = molecular target: T3, DISC1 C-region (residues 691-836) mutant S704C (Homo sapiens, UniProt Q9NRI5, S704C); assay: Bio-layer interferometry (BLI) binding of immobilized peptides to S704C C-region
T3 construct: DISC1 C-region (residues 691-836) mutant versions S704C, and/or 713E and/or L807-FS
T3 sequence (Q9NRI5 691-836 S704C): T1 sequence (Q9NRI5 691-836 S713E) with S14C, E23S
Description: as §1

[4] = molecular target: DISC1 C-region (residues 691-836) mutant L807-FS; assay: Bio-layer interferometry (BLI) binding of immobilized peptides to L807-FS C-region; set-up: species or system human
Description: as §1

Row | Kd [1] | Kd [2] | Kd [3] | Kd [4] | Substance
1 | 460 nM | 2620 nM | 1040 nM | 170 nM | KYTAIHEWYKAHNGGA-NH2 [Flo8, KYTAIHEWYKAHNGGA-NH2]
2 | 220 nM | 640 nM | 150 nM | 110 nM | AWQHHELKWKQYQGWR-NH2 [Flm2, AWQHHELKWKQYQGWR-NH2]
3 | 420 nM | 1270 nM | 720 nM | 540 nM | HKLHHLLKWENQHKVE-NH2 [Flm11, HKLHHLLKWENQHKVE-NH2]
4 | 70 nM | 100 nM | 160 nM | 40 nM | FPHPTLKHREFMRHVS-NH2 [Flo1, FPHPTLKHREFMRHVS-NH2]
5 | 210 nM | 250 nM | 360 nM | 270 nM | QDNPWWHEHKHWKSWP-NH2 [Flo5, QDNPWWHEHKHWKSWP-NH2]

More lines, now with the values behind:

Row | Substance | Kd [1] | Kd [2] | Kd [3] | Kd [4]
6 | PWYNAPHSHGFWGSGR-NH2 [Flm9, PWYNAPHSHGFWGSGR-NH2] | 1500 nM | 3200 nM | 1490 nM | 390 nM
7 | HISMQTYKWSQWAKHQ-NH2 [Flo3, HISMQTYKWSQWAKHQ-NH2] | 420 nM | 2620 nM | 270 nM | 400 nM
8 | WNHPMNIRSISWHKDS-NH2 [Flm6, WNHPMNIRSISWHKDS-NH2] | 1070 nM | 2010 nM | 2240 nM | 530 nM
9 | GIKSLISNKMHTQWNY-NH2 [Flm5, GIKSLISNKMHTQWNY-NH2] | 80 nM | 640 nM | 150 nM | 110 nM
10 | TSGVPWWKFQQQVRRT-NH2 [Flo11, TSGVPWWKFQQQVRRT-NH2] | 890 nM | 3680 nM | 1060 nM | 160 nM
11 | SNWHPRHFFMSPSSPQ-NH2 [Flo6, SNWHPRHFFMSPSSPQ-NH2] | 460 nM | 2360 nM | 720 nM | 170 nM
12 | IWAGHIHDWWRRGQGS-NH2 [Flm1, IWAGHIHDWWRRGQGS-NH2] | 80 nM | 150 nM | 80 nM | 200 nM
